Experimental data: US20190119282A1, “IMIDAZOPYRIDAZINES USEFUL AS INHIBITORS OF THE PAR-2 SIGNALING PATHWAY” (Vertex Pharmaceuticals Incorporated, priority 2013, published 2019)

Columns and labels:
[1] = test system: UTP-stimulated Ca2+ response in HT-29 cells; assay: Ca FLIPR TETRA assay, ANTAGONIST mode, stimulation with 0.6 μM UTP; format: cell-based, human; details: Homo sapiens, HT-29 cells
Protocol: (§1) Example 60: Protocol for Testing PAR2 Compounds in ANTAGONIST Mode Using the Ca FLIPR^TETRA Assay (384 Well)
(§2) 23000 HT-29 cells (ATCC# HTB-38) were plated in 384-well black, transparent-flat bottom plates and incubated in 25 uL of 1% FBS/McCoy's media ON at 37° C. under an atmosphere of 5% CO2. The following day, 25 uL FLIPR calcium 5 Molecular Devices assay reagent (Cat: R-8186) was added. Plates were incubated at 37° C. and r. t. for 45 min and 15 min, respectively. Compounds dilutions were prepared in 100% DMSO using a Biomek FX and diluted 20-fold in HBSS and then 5.5 uL was added directly to the cells by the FLIPR^TETRA (10× dilution) using FLIPR Tetra Pipette tips, black, non-sterile, 384 Molecular Devices (Cat: 9000-0764).
(§3) A first read was performed to determine whether the test compounds on their own can activate Ca2+ responses.
(§4) The cells were incubated with the compounds for 30 min at r. t. and then read in ANTAGONIST mode in the same plate by stimulating with 6.2 uL of a fixed concentration of the activator: final concentrations: 8 μM SLIGKV, 1 U/mL Thrombin, 3.1 U/mL trypsin, or 0.6 μM UTP.

[2] = target: T1, PAR2 (HT-29 cells, trypsin activation) (Homo sapiens, UniProt P55085); assay: Ca FLIPR TETRA assay, ANTAGONIST mode, stimulation with 3.1 U/mL trypsin; format: cell-based; details: HT-29 cells
T1 construct: host or cells: HT-29 cells
T1 sequence (P55085 26-397): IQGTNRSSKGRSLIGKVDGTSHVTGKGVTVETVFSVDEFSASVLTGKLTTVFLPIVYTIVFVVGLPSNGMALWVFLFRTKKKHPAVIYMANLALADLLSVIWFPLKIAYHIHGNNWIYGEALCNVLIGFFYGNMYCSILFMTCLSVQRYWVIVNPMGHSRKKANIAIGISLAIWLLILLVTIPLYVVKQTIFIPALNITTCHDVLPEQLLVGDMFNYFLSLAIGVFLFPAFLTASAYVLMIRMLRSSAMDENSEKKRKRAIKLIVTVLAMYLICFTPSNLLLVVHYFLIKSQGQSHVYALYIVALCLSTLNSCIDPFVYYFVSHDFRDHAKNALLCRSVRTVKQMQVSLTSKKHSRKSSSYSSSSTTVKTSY
Protocol: as §1, §2, §3, §4

[3] = test system: Thrombin-stimulated Ca2+ response in HT-29 cells; assay: Ca FLIPR TETRA assay, ANTAGONIST mode, stimulation with 1 U/mL Thrombin; format: cell-based, human; details: Homo sapiens, HT-29 cells
Protocol: as §1, §2, §3, §4

[4] = target: T2, PAR2 (HT-29 cells, SLIGKV activation) (Homo sapiens, UniProt P55085); assay: Ca FLIPR TETRA assay, ANTAGONIST mode, stimulation with 8 μM SLIGKV; format: cell-based; details: for IC50: HT-29 cells; for SLIGKV % @ concentration: @ 1.9 (μM)
T2 construct: host or cells: HT-29 cells
T2 sequence (P55085 26-397): T1 sequence (P55085 26-397)
Protocol: as §1, §2, §3, §4

[5] = antagonist mode, stimulation with 0.6 μM UTP
[6] = antagonist mode, stimulation with 3.1 U/mL trypsin
[7] = antagonist mode, stimulation with 1 U/mL Thrombin
[8] = antagonist mode, stimulation with 8 μM SLIGKV
[9] = stimulation with 3.1 U/mL trypsin
[10] = stimulation with 1 U/mL Thrombin

SMILES | IC50 [1, 5] [nM] | IC50 [2, 6] [nM] | IC50 [3, 7] [nM] | IC50 [4, 8] [nM] | IC50 ([1]; stimulation with 0.6 μM UTP) [nM] | IC50 [3, 10] [nM] | other results
Cc1ccc(-c2cc(C(C)C)c3nc(C(=O)N4CCN(C(=O)C(C)(C)O)CC4(C)C)cn3n2)cc1 [Compound I-218] | > 1000 | 39.8 | > 1000 | 24.8 |  |  | 
CC(C)(C)c1cc(-c2ccc(F)c(Cl)c2)nn2cc(C(=O)N3CCN(C(=O)[C@H]4C[C@@](C)(O)C4)CC3(C)C)nc12 [Compound I-460] | > 1000 | 0.7 | > 1000 | 0.5 |  |  | 
CC(C)c1cc(-c2ccc(Cl)cc2)nn2cc(C(=O)N3CCN(C(=O)[C@H]4C[C@H](O)C4)CC3(C)C)nc12 [Compound I-540] | > 1000 | 8.2 | > 1000 | 4.2 |  |  | 
Cc1n[nH]c(C(=O)N2CCN(C(=O)c3cn4nc(-c5ccc(F)c(Cl)c5)cc(C(C)(C)C)c4n3)C(C)(C)C2)n1 [Compound I-468] | 2120 | 1.2 | 3240 | 0.7 |  |  | 
CC(C)(C)c1cc(C2CCC(F)(F)CC2)nn2cc(C(=O)N3CCN(C(=O)[C@H]4C[C@@H](C(=O)O)C4)CC3(C)C)nc12 [Compound I-516] | > 1000 | 92 | > 1000 | 39.5 |  |  | 
Cc1cccc(-c2cc(C(C)(C)C)c3nc(C(=O)N4CCN(C(=O)c5ccccn5)CC4(C)C)cn3n2)c1 [Compound I-411] | > 1000 | 6.5 | 880 | 4.8 |  |  | 
CC(C)(C)c1cc(-c2ccc(F)cc2)nn2cc(C(=O)N3CCN(C(=O)[C@H]4C[C@@H](C(=O)O)C4)CC3(C)C)nc12 [Compound I-555, (1S,3S)-3-(4-(8-(tert-butyl)-6-(4-fluorophenyl)imidazo[1,2-b]pyridazine-2-carbonyl)-3,3-dimethylpiperazine-1-carbonyl)cyclobutane-1-carboxylic acid] |  |  |  |  |  |  | IC50 ([1]; antagonist mode, 0.6 μM UTP): > 1000 nM; IC50 ([2]; antagonist mode, 3.1 U/mL trypsin): 7.8 nM; IC50 ([3]; antagonist mode, 1 U/mL Thrombin): > 1000 nM; IC50 ([4]; antagonist mode, 8 μM SLIGKV): 4.2 nM
CC(C)c1cc(-c2ccc(Cl)c(F)c2)nn2cc(C(=O)N3CCNC(=O)C3(C)C)nc12 [Compound I-354] | > 1000 | 1.3 | > 1000 | 1.2 |  |  | 
Cc1cc(-c2cc(C(C)C)c3nc(C(=O)N4CCN(c5cn[nH]c5)C(=O)C4(C)C)cn3n2)ccc1F [Compound I-405] | > 1000 | 1.8 | > 1000 | 1.6 |  |  | 
CC(C)(C)c1cc(C2CCC(F)(F)CC2)nn2cc(C(=O)N3CCNC(=O)C3(C)C)nc12 [Compound I-428] | > 1000 | 59.7 | > 1000 | 30.7 |  |  | 
CC(C)(C)c1cc(-c2ccccc2F)nn2cc(C(=O)N3CCNC(=O)C3(C)C)nc12 [Compound I-473] | 390 | 25.5 | 475 | 15 |  |  | 
Cc1nnc(C(=O)N2CCN(C(=O)c3cn4nc(-c5ccc(C)c(F)c5)cc(C(C)(C)C)c4n3)C(C)(C)C2)o1 [Compound I-432] | > 1000 | 2.1 | > 1000 | 1.9 |  |  | 
CC(C)c1cc(-c2ccc(F)c(Cl)c2)nn2cc(C(=O)N3CCN(C(=O)[C@H]4C[C@H](C(=O)O)C4)CC3(C)C)nc12 [Compound I-501] | > 1000 | 59.5 | > 1000 | 51 |  |  | 
Cc1cc(-c2cc(C(C)(C)C)c3nc(C(=O)N4CCN(C(=O)C5CC(C)(O)C5)CC4(C)C)cn3n2)ccc1F (centres unmarked) [Compound I-384] | > 1000 | 0.8 | > 1000 | 0.6 |  |  | 
CC(C)c1cc(-c2ccc(F)c(Cl)c2)nn2cc(C(=O)N3CCNCC3(C)C)nc12 [Compound I-497] | > 1000 | 270 | > 1000 | 405 |  |  | 
Cc1cc(F)ccc1-c1cc(C(C)C)c2nc(C(=O)N3CCNC(=O)C3(C)C)cn2n1 [Compound I-478] | > 1000 |  | > 1000 | 790 |  |  | 

The next lines start with results.

IC50 [1, 5] [nM] | IC50 [2, 6] [nM] | IC50 [3, 7] [nM] | IC50 [4, 8] [nM] | IC50 ([1]; stimulation with 0.6 μM UTP) [nM] | IC50 [3, 10] [nM] | SMILES | other results
 |  |  |  | 3000 | 2000 | O=C(c1cn2nc(-c3ccc(F)cc3)cc(C(F)(F)F)c2n1)N1CCCCC1c1ccccn1 (centres unmarked) [Compound I-79] | IC50 [2, 9]: 1700 nM; IC50 ([4]; stimulation with 8 μM SLIGKV): 1300 nM
> 1000 | 4.4 | > 1000 | 11.3 |  |  | CC(C)(C)c1cc(-c2ccc(C(F)(F)F)cc2)nn2cc(C(=O)N3CCN(c4c[nH]cn4)C(=O)C3(C)C)nc12 [Compound I-358] | 
 |  |  |  | > 5000 | 9600 | C[C@H]1CN(C(=O)c2cn3nc(-c4ccc(F)cc4)cc(C(F)(F)F)c3n2)CCN1C(=O)OCc1ccccn1 [Compound I-11, 2-Pyridylmethyl (2S)-4-[6-(4-fluorophenyl)-8-(trifluoromethyl)-imidazo-[1,2-b]pyridazine-2-carbonyl]-2-methyl-piperazine-1-carboxylate] | IC50 [2, 9]: 300 nM; IC50 ([4]; stimulation with 8 μM SLIGKV): 65 nM
> 1000 | 0.8 | > 1000 | 0.5 |  |  | CC(C)(C)c1cc(-c2ccc(F)cc2)nn2cc(C(=O)N3CCN(C(=O)c4ncc[nH]4)CC3(C)C)nc12 [Compound I-229] | 
 |  |  |  | 4400 | 5500 | CCOC(=O)[C@H]1CCCN(C(=O)c2cn3nc(-c4ccc(F)cc4)cc(C(F)(F)F)c3n2)[C@@H]1C [Compound I-76] | IC50 [2, 9]: 4800 nM; IC50 ([4]; stimulation with 8 μM SLIGKV): 3300 nM
 |  |  |  | 39000 | > 50000 | CC(C)c1cc(-c2ccc(F)cc2)nn2cc(C(=O)N3CCN(C(=O)C4(NC(=O)OC(C)(C)C)CC4)[C@@H](C)C3)nc12 [Compound I-148] | IC50 [2, 9]: 96 nM; IC50 ([4]; stimulation with 8 μM SLIGKV): 52 nM
 |  |  |  | > 50000 | > 50000 | CC(C)c1cc(-c2ccc(F)cc2)nn2cc(C(=O)N3CCN(C(=O)C4(NC(=O)OC(C)(C)C)CCC4)[C@@H](C)C3)nc12 [Compound I-149] | IC50 [2, 9]: 57 nM; IC50 ([4]; stimulation with 8 μM SLIGKV): 30 nM
 |  |  |  | > 5000 | > 5000 | CC(C)c1cc(-c2ccc(F)cc2)nn2cc(C(=O)N3CCN(C(=O)[C@H](O)c4ccccc4Cl)[C@@H](C)C3)nc12 [Compound I-106] | IC50 [2, 9]: 1 nM; IC50 ([4]; stimulation with 8 μM SLIGKV): 0.6 nM
900 | 13 | 1100 | 10.3 |  |  | Cc1c[nH]nc1C(=O)N1CCN(C(=O)c2cn3nc(-c4ccc(F)cc4)cc(C(C)C)c3n2)C(C)(C)C1 [Compound I-302] | 
> 1000 | 2.6 | 650 | 1.8 |  |  | CC(C)(C)c1cc(-c2ccc(F)cc2)nn2cc(C(=O)N3CCN(C(=O)c4ncccn4)CC3(C)C)nc12 [Compound I-285] | 
 |  |  |  | 32000 | 33000 | CC(C)c1cc(-c2ccc(F)cc2)nn2cc(C(=O)N3CCN(C(=O)CC(C)(C)O)[C@@H](C)C3)nc12 [Compound I-131] | IC50 [2, 9]: 650 nM; IC50 ([4]; stimulation with 8 μM SLIGKV): 67 nM
> 1000 | 205 | > 1000 | 108 |  |  | CC(C)c1cc(-c2ccc(F)c(C(F)(F)F)c2)nn2cc(C(=O)N3CCN(C(=O)C(C)(C)O)CC3(C)C)nc12 [Compound I-222] | 
> 1000 | 4.3 | > 1000 | 3.4 |  |  | Cc1nc(C(=O)N2CCN(C(=O)c3cn4nc(-c5ccc(C(F)(F)F)cc5)cc(C(C)C)c4n3)C(C)(C)C2)n[nH]1 [Compound I-413] | 
 |  |  |  | 4500 | 4100 | O=C(c1cn2nc(-c3ccc(F)cc3)cc(C(F)(F)F)c2n1)N1CCCCC1c1ccn[nH]1 (centres unmarked) [Compound I-78] | IC50 [2, 9]: 1600 nM; IC50 ([4]; stimulation with 8 μM SLIGKV): 510 nM
 |  |  |  | > 50000 | > 50000 | CCOC1CCN(C(=O)c2cn3nc(-c4ccc(F)cc4)cc(C(F)(F)F)c3n2)CC1 [Compound I-48] | SLIGKV % @ concentration [4]: 51% @ 1.9
 |  |  |  | > 50000 | > 50000 | C[C@H]1CCCCN1C(=O)c1cn2nc(-c3ccc(F)cc3)cc(C(F)(F)F)c2n1 [Compound I-65] | SLIGKV % @ concentration [4]: 56% @ 1.9
